Results published in patent publication US20070196885A1, “Method of determining carbonic anhydrase i activity” (YAMASA CORPORATION, priority 2004, published 2007).

What was measured:
Type in all cases: biochemical
[1] = biological target: T1, human CAI (Homo sapiens, UniProt P00915); test: Hydrolase activity, o-nitrophenyl acetate substrate, no inhibitor (Example 1); conditions: 25-μg/mL human CAI solution, 9 mM substrate solution, pH 8, room temperature, five minutes
Description: (§1) o-Nitrophenyl acetate was employed as a substrate having higher reactivity with CAI than with CAII, and no inhibitor was used.
(§2) • (1) By use of purified water, a 25-μg/mL human CAI solution and a 5-μg/mL human CAII solution were prepared. • (2) A 30 mM dimethyl malonate buffer (pH: 8) was provided. • (3) By use of purified water, a 9 mM o-nitrophenyl acetate solution was prepared. Before dissolution in water, the substrate had been dissolved in advance in acetone. […] Specifically, solutions of (1), (2), and (3) (each 50 μL) were mixed, and the mixture was allowed to react at room temperature for five minutes. Absorbance of the mixture was measured at 405 nm before and after reaction, and change in absorbance (ΔA) was calculated.
(§3) In order to prepare a sample reference, only purified water was used as solution (1). The reference was allowed to react in the same manner as above, and absorbance of the mixture was measured at 405 nm before and after reaction, whereby change in absorbance of the reference was determined. The change in absorbance intrinsic to CA was calculated by the following equation:
(§4) <Calculation> Change in CA-intrinsic absorbance=ΔA1−ΔA3; wherein
(§5) ΔA1 represents change in absorbance of a sample consisting of solutions (1), (2), and (3), and
(§6) ΔA3 represents change in absorbance of a sample consisting of reference solution (1) and solutions (2) and (3).

[2] = biological target: T2, human CAII (Homo sapiens, UniProt P00918); test: as above; conditions: 5-μg/mL human CAII solution, 9 mM substrate solution, pH 8, room temperature, five minutes
Description: as §1, §2, §3, §4, §5, §6

[3] = biological target: T1, human CAI; test: Hydrolase activity with AEBSF and formaldehyde (Example 3); conditions: 25-μg/mL human CAI solution; 9 mM substrate solution; 0.1 mM AEBSF and 50 mM formaldehyde; pH 8, room temperature, five minutes
Description: (§7) o-Nitrophenyl acetate was employed as a substrate having higher reactivity with CAI than with CAII. In addition, 4-(2-aminoethyl)benzenesulfony fluoride (AEBSF) serving as an inhibitor inhibiting a hydrolase other than CA, and formaldehyde serving as an enhancer of the inhibitor were employed.
(§8) • (1) By use of purified water, a 25-μg/mL human CAI solution and a 5-μg/mL human CAII solution were prepared. • (2) A 30 mM dimethyl malonate buffer (pH: 8) including 0.1 mM AEBSF, and 50 mM formaldehyde were provided. • (3) By use of purified water, a 9 mM o-nitrophenyl acetate solution was prepared. Before dissolution in water, the substrate had been dissolved in advance in acetone. […] Absorbance of the mixture was measured at 405 nm before and after reaction, and change in absorbance (ΔA) was calculated.
as §3, §4
(§9) ΔA1 represents change in absorbance of a sample consisting of solution (1), solution (2), and solution (3), and […]

[4] = biological target: T2, human CAII; test: as above; conditions: 5-μg/mL human CAII solution; 9 mM substrate solution; 0.1 mM AEBSF and 50 mM formaldehyde; pH 8, room temperature, five minutes
Description: as §7, §8, §3, §4, §9

[5] = biological target: T1, human CAI; test: Acetazolamide-inhibited hydrolase activity (Example 5); conditions: for Absorbance change (CA-intrinsic, inhibited by acetazolamide, 405 nm): 25-μg/mL human CAI solution, 3 mM acetazolamide solution, pH 8, room temperature, five minutes; for reactivity of substrate with CAI relative to reactivity with CAII: used in combination with acetazolamide (Example 5, Table 3)
Text: (§10) o-Nitrophenyl acetate was employed as a substrate having higher reactivity with CAI than with CAII. As an inhibitor, acetazolamide, which inhibits both CAI and CAII, was used in combination. A reference substrate was produced from p-nitrophenyl acetate—a substrate having low specificity to CAI (reactive with both CAI and CAII)—and the above acetazolamide serving as a CA inhibitor in combination.
(§11) • (1) By use of purified water, a 25-μg/mL human CAI solution and a 5-μg/mL human CAII solution were prepared. • (2) A 3 mM acetazolamide solution was prepared by use of a 30 mM dimethyl malonate buffer (pH 8). Before dissolution in the buffer, acetazolamide had been dissolved in advance in dimethyl sulfoxide (DMSO). Thus, the solution has a DMSO content of 0.15% (v/v). • (3) By use of purified water, a 6 mM o-nitrophenyl acetate solution and a 3 mM p-nitrophenyl acetate solution were prepared. Before dissolution in water, each substrate had been dissolved in advance in acetone. […] Specifically, solutions of (1), (2), and (3) (each 50 μL) were mixed, and the mixture was allowed to react at room temperature for five minutes. Absorbance of the mixture was measured at 405 nm before and after reaction, and change in absorbance (ΔA) was calculated.
(§12) In order to prepare a sample reference and an inhibitor reference, only purified water and 0.15% (v/v) DMSO-containing 30 mM dimethyl malonate buffer were used as reference solutions (1) and (2), respectively. Each of the references was allowed to react in the same manner as above, and absorbance of the mixture was measured, whereby change in absorbance of the reference was determined.
(§13) <Calculation> Change in CA-intrinsic absorbance=[ΔA1−ΔA3]−[ΔA2−ΔA4]; wherein • ΔA1 represents change in absorbance of a sample consisting of solution (1), reference solution (2), and solution (3); • ΔA2 represents change in absorbance of a sample consisting of solutions (1), (2), and (3); • ΔA3 represents change in absorbance of a sample consisting of reference solutions (1) and (2), and solution (3); and • ΔA4 represents change in absorbance of a sample consisting of reference solution (1) and solutions (2) and (3). <Results>

[6] = biological target: T2, human CAII; test: as above; conditions: 5-μg/mL human CAII solution, 3 mM acetazolamide solution, pH 8, room temperature, five minutes
Text: as §10, §11, §12, §13

[7] = biological target: T1, human CAI; test: Iodide-inhibited hydrolase activity, o-nitrophenyl acetate (Example 9); conditions: 25-μg/mL human CAI solution; 9 mM o-nitrophenyl acetate solution; 300 mM potassium iodide solution; pH 8, room temperature, five minutes
Description: (§14) o-Nitrophenyl acetate was used as a substrate having higher reactivity with CAI than with CAII, and in combination, an iodide ion (I^−) was used as a CA inhibitor inhibiting CAI more potently than CAII.
(§15) • (1) By use of purified water, a 25-μg/mL human CAI solution and a 5-μg/mL human CAII solution were prepared. • (2) A 300 mM potassium iodide solution was prepared by use of a 30 mM dimethyl malonate buffer (pH 8). • (3) By use of purified water, a 9 mM o-nitrophenyl acetate solution was prepared. Before dissolution in water, the substrate had been dissolved in advance in acetone. […] Absorbance of the mixture was measured at 405 nm before and after reaction, and change in absorbance (ΔA) was calculated.
(§16) In order to prepare a sample reference and an inhibitor reference, only purified water and 30 mM dimethyl malonate buffer were used as reference solutions (1) and (2), respectively. Each of the references was allowed to react in the same manner as employed above, and absorbance of the mixture was measured, whereby change in absorbance of the reference was determined. […]

[8] = biological target: T2, human CAII; test: as above; conditions: 5-μg/mL human CAII solution; 9 mM o-nitrophenyl acetate solution; 300 mM potassium iodide solution; pH 8, room temperature, five minutes
Description: as §14, §15, §16

[9] = biological target: T1, human CAI; test: Iodide-inhibited hydrolase activity, p-nitrophenyl acetate (Example 7); conditions: 25-μg/mL human CAI solution; 3 mM p-nitrophenyl acetate solution; 3 mM potassium iodide solution; pH 8, room temperature, five minutes
Description: (§17) p-Nitrophenyl acetate serving as a substrate reacting with both CAI and CAII and an iodide (I^−) serving as a CA inhibitor inhibiting CAI more potently than CAII were employed in combination.
as §2, with “(2) A 3 mM potassium iodide solution was prepared by use of a 30 mM” for “(2) A 30 mM”, “malonate buffer (pH 8). • (3)” for “malonate buffer (pH: 8) was provided. • (3)”, “water, a 3 mM p-nitrophenyl” for “water, a 9 mM o-nitrophenyl”, “3 mM p-nitrophenyl acetate solution” for “9 mM o-nitrophenyl acetate solution”
as §16

[10] = biological target: T2, human CAII; test: as above; conditions: 5-μg/mL human CAII solution; 3 mM p-nitrophenyl acetate solution; 3 mM potassium iodide solution; pH 8, room temperature, five minutes
Description: as §17
as §2, with “(2) A 3 mM potassium iodide solution was prepared by use of a 30 mM” for “(2) A 30 mM”, “malonate buffer (pH 8). • (3)” for “malonate buffer (pH: 8) was provided. • (3)”, “water, a 3 mM p-nitrophenyl” for “water, a 9 mM o-nitrophenyl”, “3 mM p-nitrophenyl acetate solution” for “9 mM o-nitrophenyl acetate solution”
as §16

[11] = 6 mM o-nitrophenyl acetate solution
[12] = 3 mM p-nitrophenyl acetate solution

T1 sequence (P00915 whole entry): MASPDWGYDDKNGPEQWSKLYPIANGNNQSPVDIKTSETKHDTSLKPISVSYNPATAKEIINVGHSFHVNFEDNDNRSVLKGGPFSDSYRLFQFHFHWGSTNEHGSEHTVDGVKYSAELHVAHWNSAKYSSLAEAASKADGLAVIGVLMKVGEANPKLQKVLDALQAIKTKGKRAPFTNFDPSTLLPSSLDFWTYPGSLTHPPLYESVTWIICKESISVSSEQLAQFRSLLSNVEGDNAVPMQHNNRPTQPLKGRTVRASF

Structure (SMILES) | Absorbance change (CA-intrinsic, 405 nm) [1] | Absorbance change (CA-intrinsic, 405 nm) [2] | Absorbance change (CA-intrinsic, 405 nm) [3] | Absorbance change (CA-intrinsic, 405 nm) [4] | Absorbance change (CA-intrinsic, inhibited by acetazolamide, 405 nm) [5, 11] | reactivity of substrate with CAI relative to reactivity with CAII [5] | Absorbance change (CA-intrinsic, inhibited by acetazolamide, 405 nm) [6, 11] | Absorbance change (CA-intrinsic, inhibited by iodide, 405 nm) [7] | Absorbance change (CA-intrinsic, inhibited by iodide, 405 nm) [8] | Absorbance change (CA-intrinsic, inhibited by acetazolamide, 405 nm) [5, 12] | Absorbance change (CA-intrinsic, inhibited by acetazolamide, 405 nm) [6, 12] | Absorbance change (CA-intrinsic, inhibited by iodide, 405 nm) [9] | Absorbance change (CA-intrinsic, inhibited by iodide, 405 nm) [10]
CC(=O)Oc1ccccc1[N+](=O)[O-] [o-Nitrophenyl acetate, o-nitrophenyl acetate] | 0.511 | 0.011 | 0.329 | 0.008 | 0.285 | higher than twice the reactivity with CAII | 0.004 | 0.504 | 0.009 | – | – | – | –
CC(=O)Oc1ccc([N+](=O)[O-])cc1 [p-Nitrophenyl acetate, p-nitrophenyl acetate] | – | – | – | – | – | lower than twice the reactivity with CAII | – | – | – | 0.283 | 0.162 | 0.052 | 0.005
